Assay results taken from patent US8389231B2, “Assays, method and compositions that exploit a mycobacterial iron acquistion pathway in cells” (The Trustees of Princeton University, priority 2005, dated 2013).

What was measured:
[1] = tested on: macrophages (THP-1 cell line); experiment: MJ-mediated iron acquisition: conversion of MJ to Fe-MJ in macrophage culture, HPLC analysis; format: cell-based, human; conditions: for effect on basal recovery of Fe-MJ: 10 μM metal transferrin added to macrophages with MJ; for stimulation of MJ-mediated iron acquisition from macrophages (conversion of MJ to Fe-MJ): 10 μM transferrin species added to macrophages with MJ, 37° C.
Description: Cell cultures. The THP-1 cell line (a macrophage-like monocyte) was purchased from American Type Culture Collection (ATCC) and used for all protocols. The cells were cultured into PRMI1640 (ATCC) supplemented with 10% fetal bovine serum (ATCC), 2 mM L-glutamine and 0.02 mM penicillin-streptomycin, and maintained at a cell concentration between 2×10^5 and 1×10^6 cells/ml at 37° C. in a 5% CO2 air atmosphere by addition of fresh growth medium (as described above) twice per week. Either PRMI1640 or phenol-red-free PRMI1640 was used with the supply of 2 mM L-glutamine and 0.02 mM penicillin-streptomycin, but in the absence of 10% FBS, for the experiments with MJ.
HPLC analysis for Fe-MJ and MJ. Varian ProStar & PrepStar HPLC and a Waters Delta Pak 5μ C18-300 Åcolumn were used with 3:7 H2O:CH3CN as eluting solution under all conditions. The intensities of the peak with retention time 43 min at 460 nm were integrated and normalized to the amount of Fe-MJ. Macrophages (final concentration, 1×10^5 cells/ml) or 0.05 mM DMPC vesicles as controls were preincubated in RPMI 1640 medium at 37° C. for 4 h, followed by the addition of MJ (final concentration, 1.5 μM). The media were incubated for 24 h at various conditions, such as in the presence or absence of hTf, at varied temperatures or in the presence of different concentrations of desferrioxamine mesylate salt. Three aliquots (3×4 ml) of the medium were collected and lysed by dunces. Lipophilic components were extracted into 3.5 ml CHCl3 and the mixture was centrifuged at 2500 r.p.m for 8 min. The organic layer extraction 2.5 ml was subject to a stream of argon to vaporize CHCl3. The dried mixture was dissolved into 400 μl CH3CN, of which 200 μl solutions was injected into HPLC. The peak intensity of 100% conversion to Fe-MJ was obtained by incubating 1.5 μM Fe-MJ into the medium, following the same workup above.

macrophage cells = experiment: Cell-aqueous-phase distributions of MJ and Fe-MJ; format: in vitro ADME, human
Description: Cell-aqueous-phase distributions of MJ and Fe-MJ. After the conversion from MJ to Fe-MJ, aqueous-phase Fe-MJ was obtained by separating the supernatant medium from macrophage cells via the centrifugation with 1500 r.p.m for 5 min. The aliquot of recovered supernatant was subject to CHCl3 extract and HPLC analysis as described above. For measurements of the cell/aqueous-phase partition coefficient of Fe-MJ, Fe-MJ 1.0 μM was incubated into RPMI 1640 medium at 37° C. for half an hour in the presence of various concentrations of macrophage cells. Then the supernatant was separated and analyzed as described above. For the partition coefficient of MJ, prior to the HPLC analysis, a 10-fold ferric citrate excess was added into a MJ-CH3CN solution, followed by a two-hr incubation for the complete conversion from MJ to Fe-MJ. Aqueous-phase and total MJ and Fe-MJ, Ctotal and Cw, respectively, were used to calculate Cv/Cw according to the relationship: Cv/Cw=(Ctotal−Cw)/Cw. The partition coefficient, K was defined according to the following equation: Cv/Cw=K×[Cell], in which [Cell] is the concentration of macrophage cells (cells/ml) and Cv is the amount of lipid-phase MJ or Fe-MJ.

[2] = Lipid-aqueous-phase partition coefficient using lipid vesicles as model membrane; format: physicochemical

Substance | effect on basal recovery of Fe-MJ [1] | stimulation of MJ-mediated iron acquisition from macrophages (conversion of MJ to Fe-MJ) [1] | further results
Al(III) transferrin: Al(III) transferrin complex prepared from apo transferrin, Al(NO3)3 and nitrilotriacetic acid | greatly suppressed | failed to stimulate | –
Co-Tf: Cobalt(III) transferrin | – | more effective agonist than hTf | –
Ga(III) transferrin: Ga(III) transferrin complex prepared from apo transferrin | greatly suppressed | failed to stimulate | –
ferric mycobactin J [Fe-MJ] | – | – | Fe-MJ from the aqueous phase as share of total recovered Fe-MJ (macrophage cells; after 24-hr incubation of MJ in macrophage culture (1×10^5 cells/ml), presence or absence of hTf): 80%; cell-aqueous-phase partition coefficient K (Cv/Cw=K×[Cell]) (macrophage cells; macrophage cells, RPMI 1640, 37° C.): 9.8×10^−7 ml/cell; lipid-aqueous-phase partition coefficient Kx [2]: 3×10^5
hTf: fully saturated holo-transferrin (human transferrin), obtained from Sigma | – | nearly doubled | hTf-triggered conversion at low temperatures ([1]; 10 μM hTf, low temperatures (4° C. level similar to absence of hTf)): significantly suppressed
